# Experimental data taken from US20110224300A1, “USE OF POTASSIUM 2-(a- HYDROXYPENTYL) BENZOATE IN THE MANUFACTURE OF MEDICAMENTS FOR PREVENTING AND/OR TREATING SENILE [sequence]” (Institute of Mataria Medica, Chinese Academy of Me, priority 2008, published 2011).
# Columns and labels:
# MDA = MDA level of brain tissues from Aβ(25-35)-induced dementia rats; format: in vivo, Male Wistar rats; details: Aβ(25-35) rats, 2 weeks, vehicle 5.43±0.55
# Protocol: (§1) The biochemical assays were conducted later (in 24 h) after behavioral testing. Eight rats in each group were anesthetized with ether and sacrificed. The brains were quickly removed and cleaned with ice-cold saline. Then the parietal cortex and hippocampus were isolated. For biochemical analysis, the tissues were weighed and homogenized in ice-cold saline with the proportion of 1:9 (w/v). Homogenization (IKA, Germany) was carried out for 2 min in an ice bath. After the homogenates were centrifuged at 2,000×g for 10 min at 4° C. (Sigma, Germany), the supernatant was used for analytical procedures. The levels of choline acetyltransferase (ChAT) SOD, and MDA activities were determined with commercial colorimetric assay kits (Nanjing Jiancheng Bioengineering Institute, China). The content of protein in the supernatant was determined by Bradford method using BSA as standard.
# Rats were divided into four experimental groups randomly (10 rats/each group): one sham-operated group, one vehicle control group, and two dl-PHPB-treated groups (39, and 129 mg/kg). At 1 days after operation, drugs and vehicle were administered orally to rats for 14 days (one time/each day). The spatial learning and memory abilities of rats were detected by Morris water maze in the 9-12 days after operation. The testing of Morris water was commenced at 40 min after drugs treated. […]
# [1] = test system: corpus callosum and optic tract of 2-VO rats; experiment: Klüver-Barrera staining in 2-VO rats; format: in vivo, rat; details: for improvement of pathological damage of the corpus callosum, K-B staining: 21 days, rank among doses
# Protocol: Four rats in each group were anesthetized with sodium pentobarbital (100 mg/kg, intraperitoneal injection), and perfused transcardially with cold saline, followed by 300 ml of 4% paraformaldehyde in 0.01 M phosphate buffer (pH 7.4). After these procedures, the brains were removed and stored in the 0.01 M phosphate buffer (pH 7.4) with 4% paraformaldehyde and 30% sucrose at 4° C. until fully equilibrated. Then they were postfixed at 4° C., dehydrated and embedded in paraffin blocks. Coronal sections of 8 μm were stained with hematoxylin-eosin and Klüver-Barrera.
# KB staining could reflect the morphological changes of neuronal myelin sheath, and the morphological changes of nerve fibers.
# Mitochondrial ATPase = experiment: Cortex mitochondrial ATPase activity in SAMP8 mice; format: in vivo; details: 160 mg/kg oral, 35 days, vehicle 8.58±0.21, significant
# Protocol: as §1
# SAMP8 were divided into three experimental groups randomly: one vehicle control group, and two dl-PHPB-treated groups (50, and 160 mg/kg). Drugs and vehicle were administered orally to SAMP8 mice for 35 days (one time/each day). The spatial learning and memory abilities of SAMP8 mice were detected by Morris water maze and DTT-2 jumping apparatus in 31-35 days. The testing was commenced at 40 min after drugs treated. The biochemical and pathology assays conducted later (in 24 h) after behavioral testing. […]
# SAMP8 mice = experiment: Step down test in SAMP8 mice; format: in vivo; details: for step-down latency time: vehicle 0.7±0.2, P<0.01
# Protocol: SAMP8 were divided into three experimental groups randomly: one vehicle control group, and two dl-PHPB-treated groups (50, and 160 mg/kg). Drugs and vehicle were administered orally to SAMP8 mice for 35 days (one time/each day). The spatial learning and memory abilities of SAMP8 mice were detected by Morris water maze and DTT-2 jumping apparatus in 31-35 days. The testing was commenced at 40 min after drugs treated. The biochemical and pathology assays conducted later (in 24 h) after behavioral testing.
# The step-down avoidance task was performed by using a behavior box (22 cm×15 cm×30 cm each). Each testing chamber has 3 Plexiglas black walls, a clear Plexiglas front wall, metal grid floors and an insulating platform (3 cm diameter, 4 cm height), which is located at one corner of the testing chamber. The metal grids are connected to the output terminals of an electrical stimulator. For the habituation session, each mouse was gently placed on the insulating platform and was allowed to explore in the testing chamber for 3 min before placing back on the platform again. Monophasic pulses (1 ms, 1 Hz, 36 VDC) were continuously delivered for 5 min during the training tria. If the mouse steps down from the platform onto the grid floor, the mouse will be subjected to receive an electric shock until returning to the platform. Then, 24 h after the training, the mice were placed on the platform for assessing their long term memory of retention period. The electric shocks were delivered for 5 min and the latency to step down on the grid with four paws for the first time (step-down latency) and the numbers of errors subjected to shocks within 5 min were recorded.
# ChAT = ChAT activity of brain tissues from permanent 2-VO rats; format: in vivo, rat; details: for activity of ChAT in hippocampus: 21 days
# Protocol: In 10 days after onset of 2-VO, drugs and vehicle were administered orally to rats for 21 days (one time/each day). The spatial learning and memory capability of rats were detected by Morris water maze in the 25-30 days after operation. The Morris water test was commenced at 40 min after drugs treated. The biochemical and pathology assays were conducted later (in 24 h) after behavioral tests.
# as §1
structure (smiles),measurement,setting,value
"CCCCC(O)c1ccccc1C(=O)[O-].[K+] (racemic) [dl-PHPB, Potassium 2-(1-Hydroxypentyl)-benzoate]",cortex MDA level,"MDA; 39 mg/kg oral, P<0.05",3.62±0.21 nmol/mg protein
same,cortex MDA level,"MDA; 129 mg/kg oral, P<0.01",3.28±0.25 nmol/mg protein
same,"improvement of pathological damage of the corpus callosum, K-B staining",[1]; dl-PHPB 13 mg/kg,the weakest
same,"pathological changes of the optic tract, K-B staining",[1]; dl-PHPB 39 mg/kg,strong role
same,"improvement of pathological damage of the corpus callosum, K-B staining",[1]; dl-PHPB 39 mg/kg,strongest
same,"pathological changes of the optic tract, K-B staining",[1]; dose not specified,a certain improvement
same,ATPase activity (cortex mitochondria),Mitochondrial ATPase,9.82±0.51 U/mg protein
same,numbers of errors subjected to shocks,"SAMP8 mice; 50 mg/kg oral, first day of training, vehicle 8.3±0.6, P<0.01",5.8±0.5
same,numbers of errors subjected to shocks,"SAMP8 mice; 50 mg/kg oral, second day, vehicle 4.6±0.3, P<0.05",3.4±0.3
same,step-down latency time,SAMP8 mice; 50 mg/kg oral,5.5±0.8
same,numbers of errors subjected to shocks,"SAMP8 mice; 160 mg/kg oral, first day of training, vehicle 8.3±0.6, P<0.001",4.9±0.5
same,numbers of errors subjected to shocks,"SAMP8 mice; 160 mg/kg oral, second day, vehicle 4.6±0.3, P<0.01",2.1±0.3
same,step-down latency time,SAMP8 mice; 160 mg/kg oral,10.2±2.4
same,ChAT activity in cortex,"ChAT; cortex, data not shown",had no effect
same,activity of ChAT in hippocampus,ChAT; dl-PHPB 13 mg/kg,did not show significant effects
same,activity of ChAT in hippocampus,ChAT; dl-PHPB 39 mg/kg,did not show significant effects
same,activity of ChAT in hippocampus,"ChAT; dl-PHPB 129 mg/kg, P<0.05",significantly increased the activity of ChAT
